Test results: patent publication US8697732B2, “Pyridine derivatives” (Actelion Pharmaceuticals Ltd., priority 2006, dated 2014)

Assays:
[1] = biological target: recombinant human S1P1 receptor (Homo sapiens, UniProt P21453); experiment: GTPγS assay to determine EC50 values; type: biochemical; conditions: 35S-GTPγS binding, membrane preparations of CHO cells expressing recombinant human S1P1 receptor
Procedure: GTPγS binding assays are performed in 96 well microtiter plates (Nunc, 442587) in a final volume of 200 μl, using membrane preparations of CHO cells expressing recombinant human S1P1 receptor. Assay conditions are 20 mM Hepes (Fluka, 54461), 100 mM NaCl (Fluka, 71378), 5 mM MgCl2 (Fluka, 63064), 0.1% BSA (Calbiochem, 126609), 1 μM GDP (Sigma, G-7127), 2.5% DMSO (Fluka, 41644), 50 pM ^35S-GTPγS (Amersham Biosciences, SJ1320). The pH is 7.4. Test compounds are dissolved and diluted in 100% DMSO and pre-incubated at room temperature for 30 min in 150 μl of the above assay buffer, in the absence of ^35S-GTPγS. After addition of 50 μl of ^35S-GTPγS, the assay is incubated for 1 h at rt. The assay is terminated by transfer of the reaction mixture to a Multiscreen plate (Millipore, MAHFC1H60) using a cell harvester from Packard Biosciences, and the plates are washed with ice-cold 10 mM Na2HPO4/NaH2PO4 (70%/30%), dried, sealed at the bottom and, after addition of 25 μl MicroScint20 (Packard Biosciences, order#6013621), sealed on the top. Membrane-bound ^35S-GTPγS is measured with a TopCount from Packard Biosciences.
EC50 is the concentration of agonist inducing 50% of the maximal specific ^35S-GTPγS binding. Specific binding is determined by subtracting non-specific binding from maximal binding. Maximal binding is the amount of cpm bound to the Multiscreen plate in the presence of 10 μM of S1P. Non-specific binding is the amount of binding in the absence of an agonist in the assay. […] The EC50 values were determined according to the method described above: […]

circulating lymphocytes = experiment: Assessment of in vivo efficacy: circulating lymphocytes after oral administration; conditions: 6 h after oral administration of 10 mg/kg to normotensive male Wistar rats, as compared to vehicle-only group
Procedure: The efficacy of the compounds of Formula (I) is assessed by measuring the circulating lymphocytes after oral administration of 3 to 30 mg/kg of a compound of Formula (I) to normotensive male Wistar rats. The animals are housed in climate-controlled conditions with a 12 h-light/dark cycle, and have free access to normal rat chow and drinking water. Blood is collected before and 3, 6 and 24 h after drug administration. Full blood is subjected to hematology using Advia Hematology system (Bayer Diagnostics, Zurich, Switzerland).
All data are presented as mean±SEM. Statistical analyses are performed by analysis of variance (ANOVA) using Statistica (StatSoft) and the Student-Newman-Keuls procedure for multiple comparisons. The null hypothesis is rejected when p<0.05.

recombinant human S1P1 receptor, sequence (P21453 whole entry): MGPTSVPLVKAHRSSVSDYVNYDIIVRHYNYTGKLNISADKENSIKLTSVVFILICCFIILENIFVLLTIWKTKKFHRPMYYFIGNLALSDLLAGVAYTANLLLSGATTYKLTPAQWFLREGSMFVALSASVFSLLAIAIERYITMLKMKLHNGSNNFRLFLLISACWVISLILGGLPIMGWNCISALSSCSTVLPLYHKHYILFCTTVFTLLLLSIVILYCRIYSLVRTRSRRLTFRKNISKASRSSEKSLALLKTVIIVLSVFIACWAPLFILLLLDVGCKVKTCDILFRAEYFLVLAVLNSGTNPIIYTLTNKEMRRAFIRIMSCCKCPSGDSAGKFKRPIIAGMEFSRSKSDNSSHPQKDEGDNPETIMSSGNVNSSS

Structure (SMILES)	EC50 [1]	Lymphocyte counts (circulating lymphocytes)
CCc1cc(-c2nnc(-c3sc(C)c4c3C[C@@H]3[C@H]4C3(C)C)o2)cc(C)n1 [Example 5, 2-Ethyl-6-methyl-4-[5-((1aS,5aR)-1,1,2-trimethyl-1,1a,5,5a-tetrahydro-3-thia-cyclopropa[a]pentalen-4-yl)-[1,3,4]oxadiazol-2-yl]-pyridine]		−77%
CCc1cc(-c2noc(-c3sc(C)c4c3CC3C4C3(C)C)n2)cc(C)n1 (centres unmarked) [Example 14, 2-Ethyl-6-methyl-4-[5-(1,1,2-trimethyl-1,1a,5,5a-tetrahydro-3-thia-cyclopropa[a]pentalen-4-yl)-[1,2,4]oxadiazol-3-yl]-pyridine]	3.7 nM	
CCc1cc(C=CC(=O)c2sc(C)c3c2CC2C3C2(C)C)cc(C)n1 [Example 1, 3-(2-Ethyl-6-methyl-pyridin-4-yl)-1-((1aS,5aR)-1,1,2-trimethyl-1,1a,5,5a-tetrahydro-3-thia-cyclopropa[a]pentalen-4-yl)-propenone]	1.3 nM	

The remaining compounds from weak to strong by EC50 [1], led by results:

EC50 [1]	Structure (SMILES)	Lymphocyte counts (circulating lymphocytes)
4.6 nM	CCc1cc(CCC(=O)c2sc(CC)c3c2CCC(C)(C)C3)cc(C)n1 [Example 4, 1-(3-Ethyl-5,5-dimethyl-4,5,6,7-tetrahydro-benzo[c]thiophen-1-yl)-3-(2-ethyl-6-methyl-pyridin-4-yl)-propan-1-one]	
3.4 nM	Cc1cc(-c2nnc(-c3sc(C)c4c3C[C@@H]3[C@H]4C3(C)C)o2)cc(C)n1 [Example 8, 2,6-Dimethyl-4-[5-((1aS,5aR)-1,1,2-trimethyl-1,1a,5,5a-tetrahydro-3-thia-cyclopropa[a]pentalen-4-yl)-[1,3,4]oxadiazol-2-yl]-pyridine]	
